The results in this text go back to a polymer gas permeability compilation.

As to `*/C(C)=C(/*)[Si](C)(C)C(C)C` (repeat unit), the CH4 permeability was 360 Barrer, the CO2 permeability was 2200 Barrer, the H2 permeability came out at 1650 Barrer and the N2 permeability stood at 170 Barrer. For the same compound, the O2 permeability is 460 Barrer.
In the same order, the values of `*=CC1CC(C=*)C2C(=O)N(C34CC5CC(CC(C5)C3)C4)C(=O)C12` (repeat unit) are 0.58 Barrer, 8.39 Barrer, 12.8 Barrer, 0.5 Barrer and 1.59 Barrer.
With `*=CC1CC(C=*)C2C(=O)N(C3CCCC3)C(=O)C12` (repeat unit), the CH4 permeability is 0.54 Barrer, the CO2 permeability amounted to 8.8 Barrer, the N2 permeability is 0.45 Barrer and the O2 permeability is 1.95 Barrer.
`*=CC1CC(C=*)C2C(=O)N(C3CCCCC3)C(=O)C12` (repeat unit) yielded a CH4 permeability of 0.8 Barrer, a CO2 permeability of 13.7 Barrer, an H2 permeability of 16.1 Barrer and an N2 permeability of 0.52 Barrer. Besides, the O2 permeability was found to be 2.21 Barrer.
The compound `*=CC1CC(C=*)C2C(=O)N(c3ccccc3)C(=O)C12` (repeat unit) showed a CH4 permeability of 0.54 Barrer, a CO2 permeability of 11.4 Barrer, an H2 permeability of 11 Barrer and an N2 permeability of 0.31 Barrer. This compound yielded an O2 permeability of 1.44 Barrer.
In the same order, the values of `*=CC1CC(C=*)C2C1C([Si](O[Si](C)(C)C)(O[Si](C)(C)C)O[Si](C)(C)C)C2[Si](O[Si](C)(C)C)(O[Si](C)(C)C)O[Si](C)(C)C` (repeat unit) are 300 Barrer, 1160 Barrer, 690 Barrer, 100 Barrer and 295 Barrer.
For `*C(=C(*)c1ccc(-c2ccc(C(C)(C)C)cc2)cc1)c1ccccc1` (repeat unit) the same measures were 190 Barrer, 1220 Barrer, 455 Barrer, 70.5 Barrer and 195 Barrer.
For `*C(=C(*)c1ccc(-c2ccc([Si](C)(C)C)cc2)cc1)c1ccccc1` (repeat unit) the same measures were 450 Barrer, 2200 Barrer, 810 Barrer, 160 Barrer and 390 Barrer.
`*CC(C)C(=O)OCCOC(=O)C(C)C*` (repeat unit): the CH4 permeability worked out at 4.8 Barrer, the CO2 permeability came to 95 Barrer, the H2 permeability came to 15 Barrer and the N2 permeability was found to be 1.6 Barrer. This compound yielded an O2 permeability of 4.7 Barrer.
For `*CC(C)O*` (repeat unit) the same measures were 34 Barrer, 190 Barrer, 42 Barrer, 11 Barrer and 28 Barrer.
As for `*CC(O)C*` (repeat unit), the CH4 permeability is 0.019 Barrer, the CO2 permeability was found to be 0.4 Barrer, the N2 permeability turned out to be 0.015 Barrer and the O2 permeability amounted to 0.1 Barrer.
Compound `*CC=C(C*)[Si](C)(C)OC(C)C` (repeat unit) displayed a CH4 permeability of 3.1 Barrer, a CO2 permeability of 23.2 Barrer, an N2 permeability of 1.5 Barrer and an O2 permeability of 6 Barrer.
For `*CC=C(C*)[Si](C)(OC(C)C)OC(C)C` (repeat unit) the same measures were 63.2 Barrer, 345 Barrer, 25.4 Barrer and 69.2 Barrer.
For `*CC=C(C*)[Si](OC(C)C)(OC(C)C)OC(C)C` (repeat unit) the same measures were 263 Barrer, 1230 Barrer, 109 Barrer and 247 Barrer.
In turn, `*CCO*` (repeat unit) displayed a CH4 permeability of 4.85 Barrer, a CO2 permeability of 40.5 Barrer, an H2 permeability of 6.9 Barrer and an N2 permeability of 1.32 Barrer. The same compound displayed an O2 permeability of 4.34 Barrer.
The compound `*CN1CN(*)Cc2cc3c(cc21)C1c2ccccc2C3c2cc(*)c(*)cc21` (repeat unit) gave a CH4 permeability of 562 Barrer, a CO2 permeability of 6830 Barrer, an H2 permeability of 6390 Barrer and an N2 permeability of 409 Barrer. Besides, the O2 permeability came out at 1900 Barrer.
On to `*CN1CN(*)c2cc3c(cc21)C1(C)CCC3(C)c2cc(*)c(*)cc21` (repeat unit), for which the CH4 permeability was determined as 222 Barrer, the H2 permeability came out at 4440 Barrer, the N2 permeability was determined as 187 Barrer and the O2 permeability came out at 933 Barrer.
For `*C[Si](*)(C)C` (repeat unit), the CH4 permeability amounted to 130 Barrer, the CO2 permeability is 549 Barrer, the N2 permeability is 38 Barrer and the O2 permeability was determined as 99 Barrer.
In the same order, the values of `*Nc1c(C)cc(Cc2cc(C)c(NC(=O)c3ccc(Oc4cc(C(C)(C)C)c(Oc5ccc(C(*)=O)cc5)cc4C(C)(C)C)cc3)c(C(C)C)c2)cc1C(C)C` (repeat unit) are 1.21 Barrer, 27 Barrer, 1.18 Barrer and 6.47 Barrer.
`*Nc1ccc(*)cc1` (repeat unit) showed a CH4 permeability of 0.0094 Barrer, a CO2 permeability of 0.67 Barrer, an H2 permeability of 3.66 Barrer and an N2 permeability of 0.0165 Barrer. The O2 permeability worked out at 0.135 Barrer.
`*Nc1ccc(C(C)(C)c2ccc(NC(=O)c3ccc(Oc4cc(C(C)(C)C)c(Oc5ccc(C(*)=O)cc5)cc4C(C)(C)C)cc3)c(C)c2)cc1C` (repeat unit): the CH4 permeability was found to be 0.9 Barrer, the CO2 permeability came to 21 Barrer, the N2 permeability came to 0.81 Barrer and the O2 permeability was found to be 4.5 Barrer.
In the same order, the values of `*Nc1ccc(C(C)(C)c2ccc(NC(=O)c3ccc(Oc4cc(C(C)(C)C)c(Oc5ccc(C(*)=O)cc5)cc4C(C)(C)C)cc3)cc2)cc1` (repeat unit) are 0.47 Barrer, 13 Barrer, 0.46 Barrer and 3.11 Barrer.
Compound `*Nc1ccc(C(c2ccc(NC(=O)c3cc(C(*)=O)cc(-c4ccccc4)c3)cc2)(C(F)(F)F)C(F)(F)F)cc1` (repeat unit) returned a CH4 permeability of 0.78 Barrer, a CO2 permeability of 21 Barrer, an H2 permeability of 42 Barrer and an N2 permeability of 1.2 Barrer. Besides, the O2 permeability stood at 5.5 Barrer.
Compound `*Nc1ccc(Cc2ccc(NC(=O)CN3C(=O)c4ccc(C(*)=O)cc4C3=O)cc2)cc1` (repeat unit) registered a CH4 permeability of 0.01 Barrer, a CO2 permeability of 0.264 Barrer, an N2 permeability of 0.017 Barrer and an O2 permeability of 0.065 Barrer.
In the same order, the values of `*Nc1ccc(Oc2ccc(Oc3ccc(NC(=O)CN4C(=O)c5ccc(C(*)=O)cc5C4=O)cc3)cc2)cc1` (repeat unit) are 0.015 Barrer, 0.749 Barrer, 0.02 Barrer and 0.185 Barrer.
In turn, `*Nc1ccc(S(=O)(=O)c2ccc(NC(=O)c3cc(C(*)=O)cc(-c4ccccc4)c3)cc2)cc1` (repeat unit) displayed a CH4 permeability of 0.11 Barrer, a CO2 permeability of 3.2 Barrer, an H2 permeability of 7.6 Barrer and an N2 permeability of 0.13 Barrer. The compound also yielded an O2 permeability of 0.75 Barrer.
For `*OC(=O)Oc1c(Br)cc(C(C)(C)c2cc(Br)c(*)c(Br)c2)cc1Br` (repeat unit) the same measures were 0.123 Barrer, 4.21 Barrer, 43 Barrer, 0.191 Barrer and 1.43 Barrer.
`*OC(=O)Oc1c(Cl)cc(C(C)(C)c2cc(Cl)c(*)c(Cl)c2)cc1Cl` (repeat unit) displayed a CH4 permeability of 0.223 Barrer, a CO2 permeability of 6.68 Barrer, an N2 permeability of 0.36 Barrer and an O2 permeability of 2.29 Barrer.
In the same order, the values of `*OC(=O)c1cccc(C(=O)Oc2c(C)cc(C(C)(C)c3cc(C)c(O*)c(C)c3)cc2C)c1` (repeat unit) are 0.53 Barrer, 24 Barrer, 0.68 Barrer and 3.5 Barrer.
In the same order, the values of `*OC(=O)c1cccc(C(=O)Oc2ccc(C(C)(C)c3ccc(O*)c(C)c3)cc2C)c1` (repeat unit) are 0.044 Barrer, 2.5 Barrer, 0.076 Barrer and 0.46 Barrer.
Take `*OC1OC(COC(=O)NC(C)(C)C)C(*)C(OC(C)=O)C1OC(C)=O` (repeat unit): the CH4 permeability turned out to be 1.4 Barrer, the CO2 permeability is 28.5 Barrer, the H2 permeability came to 31 Barrer and the N2 permeability stood at 0.98 Barrer. The compound further displayed an O2 permeability of 4.3 Barrer.
In the same order, the values of `*OC1OC(COCC)C(*)C(OCC)C1OCC` (repeat unit) are 9.2 Barrer, 91 Barrer, 68 Barrer, 4.3 Barrer and 15 Barrer.
The compound `*OCC(*)CCl` (repeat unit) gave a CH4 permeability of 0.657 Barrer, a CO2 permeability of 8 Barrer and an N2 permeability of 0.24 Barrer.
`*OCC1OC(COCC)C(*)C(OCC)C1OCC` (repeat unit): the CH4 permeability came out at 6.1 Barrer, the CO2 permeability stood at 67.7 Barrer, the H2 permeability worked out at 54.4 Barrer and the N2 permeability was 3.18 Barrer. This compound also came in with an O2 permeability of 11.9 Barrer.
In the same order, the values of `*OCCCCCC(*)=O` (repeat unit) are 1.57 Barrer, 16.8 Barrer, 5.06 Barrer, 0.59 Barrer and 1.32 Barrer.
In the case of `*O[Si](*)(C)CCC(F)(F)F` (repeat unit), the CH4 permeability turned out to be 201 Barrer, the CO2 permeability was found to be 1390 Barrer, the N2 permeability worked out at 88.3 Barrer and the O2 permeability turned out to be 200 Barrer.
In turn, `*O[Si](C)(C)CCCCCCCC[Si](*)(C)C` (repeat unit) had a CH4 permeability of 360 Barrer, a CO2 permeability of 1200 Barrer and an O2 permeability of 237 Barrer.
